# Measurements: patent US20070087364A1, “In vitro erythroid micronucleus assay for genotoxicity” (Massachusetts Institute of Technology, priority 2005, published 2007)
# Entries after “also recorded” stand apart in the source; their conditions may differ.
# Tests used:
# MGMT^−/− Lin^− BM = assay: in vitro erythroid micronucleus assay, MGMT−/− Lin− bone marrow; settings: introduced 10 h, 23 h or 30 h after seeding, harvest 72 h
# [1] = test system: Lin^− fraction of C57BL/6J (mouse) BM; assay: in vitro erythroid micronucleus assay, erythropoietic culture of wild-type Lin− bone marrow
# [2] = bolus injection of 25 mg/kg, cited from earlier work
# bone marrow = settings: dose concentrations up to 20 μM, in vitro dosing (Glassner 1999); cited from earlier work
# [3] = test system: bone marrow PCEs (reticulocytes); settings: mouse; cited from earlier work
# Lin^− bone marrow cells [4] = assay: PCE growth of Lin− bone marrow by acridine orange histology, fractional-factorial design with regression; format: cell-based, mouse
# Procedure: (FIG. 14A) Lin^− bone marrow cells were cultured for 1 day in media containing serum and various combinations of soluble growth factors as listed on the abscissa; these specific 6-factor combinations constitute an orthogonal fractional-factorial design (also represented in Table 1). After 1 day, all soluble erythropoietic growth factors were removed and the cells were cultured for either 2 or 3 additional days in medium with serum. At harvest, the cells were removed from culture and late erythropoietic growth was quantified. For each culture, PCE numbers were calculated by taking the product of the total cell count and the PCE fraction of the population as determined by differential cell counting after staining with acridine orange (>2000 cells scored per culture). Growth calculations were normalized to input cell numbers and are presented as the mean of 3 independent cultures +/− the standard deviation. (FIG. 14B) Culture methods that yielded similar populations at harvest were grouped into subsets (α, β, γ, and δ); growth characteristics for these subsets were quantified and representative micrographs were acquired. […] Cultures exposed to SCF but not Epo (subset γ) expanded approximately 2.5-fold in total cell numbers, but again contained less than 3% PCEs. Cultures exposed to both Epo and SCF (subset β) expanded approximately 13-fold in total cell numbers and yielded populations in which approximately 31% of all cells are PCEs. Finally, cultures exposed to both Epo and Dex but not SCF (subset δ) expanded approximately 4-fold while producing populations in which approximately 51% of all cells are PCEs. Growth calculations are presented as the mean of all cultures in a subset ± the standard deviation. Scale bars: 20 μm.
# Table I is an experimental design chart that provides the specific details of the experimental conditions that were examined to generate FIGS. 11, 12, 14 and 16. Specifically, this experimental design is a two-level, minimum-aberration, fractional-factorial design of resolution IV (a 2IV^6-2 minimum-aberration design). The full-factorial design was not performed because an experiment of this size (2^6 cultures for each biological singlet) was logisitically infeasible. This experiment was designed in order to estimate all the main (primary) interactions between the culture response (PCEs produced) and the individual parameters included in the design. In addition, many of the secondary interactions (between the culture response and various parameter-pairs) were estimable by conducting this design (see FIGS. 12 and 16), although some of these secondary interactions were confounded with other secondary interactions. Each condition listed in the design table was tested in biological triplicate, and each triplicate set was cultured under three different atmospheric conditions, to yield a total of nine culture wells per listed condition.
# Furthermore, some variability between various Lin^− BM isolations was observed over the course of preliminary flow cytometric studies. Therefore, a definitive study was conducted that used aliquots of a large, well-mixed Lin^− population that was isolated from the combined BM of 15 mice. In this study, flow cytometry was replaced by histological analysis to provide more rigorous quantification of a population's PCE content. This study was designed to estimate the relative stimulatory effect of various, previously-identified erythroid growth factors on culture performance. Specifically a minimum-aberration, fractional-factorial experimental design (a 2IV^6-2 minimum-aberration design) was conducted to estimate all the main (primary) interactions between the culture response, which was PCEs produced (as assessed by histology), and the individual parameters included in the design (see Table I, and FIGS. 11, 12, 14 and 16). […]
# Lin^− bone marrow cells [5] = assay: erythropoietic growth of Lin− bone marrow quantified by flow cytometry (Ter-119/CD71) and total cell counts; format: cell-based, mouse; settings: for Avg Growth +/− SD: 5% CO2, 20% O2, Fn 2, Ins 10
# Procedure: FIG. 13 is a bar graph of data obtained from experiments performed to determined the effect of Epo on the erythropoietic growth of Lin− bone marrow cells. Lin^− bone marrow cells were cultured for 1 day in media containing serum along with Epo at variable concentrations. Epo was removed from the culture media at the end of 1 day, and culture was continued for 2 more days in media with serum. At the end of the third day, the resulting populations were removed from culture and erythropoietic growth was quantified as the product of total cell counts and flow cytometric region fractions. Specifically, erythroid-specific growth at two late stages was calculated for each culture by taking the product of the total cell count and the fraction of the population found to have the indicated surface phenotype (determined by flow cytometry). These erythroid growth values were then normalized to the number of Lin^− cells seeded.
# Studies were conducted by stimulating Lin^− mouse BM with specifically defined media formulations for 24 hours before replacing the medium to a minimal erythroid-differentiation medium (EDM) and culturing for an additional 2-3 days. This EDM contains 20% FBS, 2 mM L-glutamine, and 0.1 mM β-mercaptoethanol in IMDM, whereas the “Day 1” medium consists of IMDM with 15% FBS, 2 mM L-glutamine, 0.1 mM β-mercaptoethanol, 1% BSA, 200 μg holo-transferrin, 10 μg/mL insulin as well as further supplements (some specific media formulations listed in Table I). Upon harvest, the number of late-stage erythroid cells and enucleated erythrocytes produced over the culture period was analyzed. […] Although the most relevant endpoint for these cultures is PCEs-produced per primary BM cell, the number of R4 and R5 cells in the post-culture population, as measured by flow ctyometry, provided a reasonable metric of PCE content for early screening studies. More rigorous quantification, via histological analysis, was then employed in a more detailed analysis to generate FIGS. 11, 12, 14 and 16.
# As shown above, short-term erythropoietic culture can be used to detect genotoxic exposure. Quantitative studies on the erythropoietic growth of Lin^− BM after stimulus with physiologic erythropoietic factors were used to further improve the culture methodology and thus increase the potential throughput of the in vitro erythroid MN assay described here. Initially, flow cytometry was used to define late-erythroid cells by subdividing the Ter-119^+ population based on CD71 expression (regions shown in FIG. 4) to estimate the fraction of a culture that acquired late-erythroid surface markers. The products of flow cytometric region statistics and total cell counts were calculated and then normalized to input cell numbers to quantify erythropoietic growth in a culture.
# Table II. in vitro erythroid growth is modulated by physiologic erythropoietic stimuli. The culture conditions listed on the left-hand side of the table specify the environment in which a growth measurement was made. All soluble growth factors used in these experiments were removed from culture after 1 day. An X in this first section of the table indicates the variable parameter found to have a significant erythropoietic growth-effect. The measured effect of that parameter on erythropoietic growth is then given on the right-hand side of the table. In this right-hand section of the table, the first item listed is the defining surface phenotype of the erythropoietic population. […] Finally, the level of significance (P value) is given. Note that the first 4 entries to this table were taken from FIG. 13; other entries were obtained from similar figures. P values were determined by the two-tailed t test, except for the 3 italicized P values, which were determined using the one-tailed t test.
compound,measurement,setting,value
"O=NN(CCCl)C(=O)NCCCl [BCNU, 1,3-bis (2-chloroethyl) -1-nitrosourea]","MN frequency, MGMT−/− vs wild-type cultures",MGMT^−/− Lin^− BM; 10 μM and 20 μM doses,significant increases in MN frequency; also recorded: more sensitive to growth-inhibition and MN-formation
same,"cell survival (growth inhibition), MGMT−/− vs wild-type cultures",MGMT^−/− Lin^− BM,decreased cell survival
same,MN frequency in the PCE population (MN-PCE frequency),"[1]; 20 μM introduced 7 hours after seeding, harvest after 72 hours, vs vehicle control",provides a clear signal of genotoxicity; also recorded: significantly different than those exposed to vehicle control alone; also recorded: an increase in the frequency of MN-PCEs
same,cell killing and MN formation,[1]; MGMT+/+ BM cultures treated 4 h after culture initiation (data not shown),cell-killing dominated and very little MN formation was observed
same,peak plasma concentration,[2]; after 1 minute (Meulemans 1989),~0.4 mM
same,plasma level,[2]; within the next 15 minutes (Meulemans 1989),approximately 40 μM
same,cell survival as measured by colony assay,bone marrow,~100%
"COS(C)(=O)=O [MMS, methylmethane sulfonate]",result in the in vivo MN assay,[3],test positive
"SCF: stem cell factor (R&D systems), soluble erythropoietic growth factor","Scaled Estimate (model parameter, PCE growth)","Lin^− bone marrow cells [4]; complete multi-linear regression model (n3=27), parameters scaled 0 to 1",0.166
same,PCEs among all cells of the harvested population,"Lin^− bone marrow cells [4]; growth factors present for 1 day, then 2 or 3 additional days, acridine orange differential counts (FIG. 14B)",less than 3%
same,expansion in total cell numbers,"Lin^− bone marrow cells [4]; growth factors present for 1 day, then 2 or 3 additional days, mean of all cultures in a subset (FIG. 14B)",approximately 2.5 fold
same,"effect on PCE production / erythropoietic growth, statistical analysis of FIG. 12","Lin^− bone marrow cells [4]; primary and secondary effects, untreated cultures",major factors influencing erythropoietic growth; also recorded: next largest effects
same,"Scaled Estimate (model parameter, PCE growth)","Lin^− bone marrow cells [4]; reduced multi-linear regression model (n3=17), FIG. 16",0.138
same,Avg Growth +/− SD,"Lin^− bone marrow cells [5]; [SCF] = 1 ng/mL, Ter-119+ CD71+, Epo 5 U/mL, 72 h",0.897 +/− 0.053 per Lin^− cell seeded
same,Avg Growth +/− SD,"Lin^− bone marrow cells [5]; [SCF] = 1 ng/mL, Ter-119+ CD71−, Epo 5 U/mL, 72 h",0.275 +/− 0.026 per Lin^− cell seeded
same,Avg Growth +/− SD,"Lin^− bone marrow cells [5]; [SCF] = 1 ng/mL, Ter-119+ CD71−, Epo 5 U/mL, 96 h",0.372 +/− 0.052 per Lin^− cell seeded
same,Avg Growth +/− SD,"Lin^− bone marrow cells [5]; [SCF] = 10 ng/mL, Ter-119+ CD71+, Epo 3.5 U/mL, 72 h",1.512 +/− 0.100 per Lin^− cell seeded
same,Avg Growth +/− SD,"Lin^− bone marrow cells [5]; [SCF] = 10 ng/mL, Ter-119+ CD71+, Epo 5 U/mL, 72 h",1.448 +/− 0.155 per Lin^− cell seeded
same,Avg Growth +/− SD,"Lin^− bone marrow cells [5]; [SCF] = 10 ng/mL, Ter-119+ CD71−, Epo 3.5 U/mL, 72 h",0.202 +/− 0.023 per Lin^− cell seeded
same,Avg Growth +/− SD,"Lin^− bone marrow cells [5]; [SCF] = 10 ng/mL, Ter-119+ CD71−, Epo 5 U/mL, 96 h",0.608 +/− 0.081 per Lin^− cell seeded
same,Avg Growth +/− SD,"Lin^− bone marrow cells [5]; [SCF] = 100 ng/mL, Ter-119+ CD71+, Epo 5 U/mL, 72 h",1.929 +/− 0.154 per Lin^− cell seeded
same,Avg Growth +/− SD,"Lin^− bone marrow cells [5]; [SCF] = 100 ng/mL, Ter-119+ CD71−, Epo 5 U/mL, 72 h",0.369 +/− 0.041 per Lin^− cell seeded
same,"effect on erythropoietic growth (erythropoietic flow cytometry), in words","Lin^− bone marrow cells [5]; preliminary flow cytometric studies, Lin− BM from C57BL/6J mice",did induce increasing erythropoietic growth up to the maximum concentration tested
